Experimental data taken from PubChem BioAssay AID2060884 (Molecular Pharmacology Branch, DTP, NCI, 2025).
Where “and” joins values, the source holds several entries; their conditions need not be identical. Equal values may be shown once.

Tested on: NCI-H929 complex spheroids, viability % test/control
Assay: Anticancer human tumor NCI-H929 cell line growth inhibition [RAS];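 further: compound exposure lasted seven days before viability was read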;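 on viability, T/C: 100% = DMSO vehicle control viability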
Settings: for viability, T/C: stronger effect = lower value
How it was run: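 Agents were tested in combination matrices in half-log decrements from a top concentration at or near clinical Cmax (10 microM if undetermined). Targets were multi-cell spheroids of tumour lines plus HUVEC and MSC stromal cells.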

Structure (SMILES): CC(C)NCC(C(=O)N1CCN(c2ncnc3c2C(C)CC3O)CC1)c1ccc(Cl)cc1 (stereo not drawn) + CCn1c(-c2cccnc2C(C)OC)c2c3cc(ccc31)N1CCOC(CC(NC(=O)C(C(C)C)N(C)C(=O)C3(F)CCN(C(=O)C#CC(C)(C)N(C)C)CC3)C(=O)N3CCCC(N3)C(=O)OCC(C)(C)C2)C1
- IC50 (curve of first compound, second compound 0.000949 µM): 1310 nM
- IC50 (curve of first compound, second compound 0.003 µM): 1430 nM
- IC50 (curve of first compound, second compound 0.00949 µM): 1640 nM
- IC50 (curve of first compound, second compound 0.03 µM): 1450 nM
- IC50 (curve of first compound, second compound 0.0949 µM): 1200 nM
- IC50 (curve of first compound, second compound 0.3 µM): 986 nM
- viability, T/C (second compound 0.000949 µM, first compound 0.0316 µM): 106%
- viability, T/C (second compound 0.000949 µM, first compound 0.1 µM): 96.4%
- viability, T/C (second compound 0.000949 µM, first compound 0.316 µM): 98.7%
- viability, T/C (second compound 0.000949 µM, first compound 1 µM): 59.4%
- viability, T/C (second compound 0.000949 µM, first compound 3.16 µM): 16.5%
- viability, T/C (second compound 0.000949 µM, first compound 10 µM): 2.67%
- viability, T/C (second compound 0.003 µM, first compound 0.0316 µM): 99.5%
- viability, T/C (second compound 0.003 µM, first compound 0.1 µM): 101%
- viability, T/C (second compound 0.003 µM, first compound 0.316 µM): 95%
- viability, T/C (second compound 0.003 µM, first compound 1 µM): 65.4%
- viability, T/C (second compound 0.003 µM, first compound 3.16 µM): 15.5%
- viability, T/C (second compound 0.003 µM, first compound 10 µM): 2.08%
- viability, T/C (second compound 0.00949 µM, first compound 0.0316 µM): 98.6%
- viability, T/C (second compound 0.00949 µM, first compound 0.1 µM): 97%
- viability, T/C (second compound 0.00949 µM, first compound 0.316 µM): 99%
- viability, T/C (second compound 0.00949 µM, first compound 1 µM): 68.7%
- viability, T/C (second compound 0.00949 µM, first compound 3.16 µM): 23.8%
- viability, T/C (second compound 0.00949 µM, first compound 10 µM): 2.36%
- viability, T/C (second compound 0.03 µM, first compound 0.0316 µM): 101%
- viability, T/C (second compound 0.03 µM, first compound 0.1 µM): 100%
- viability, T/C (second compound 0.03 µM, first compound 0.316 µM): 98.5%
- viability, T/C (second compound 0.03 µM, first compound 1 µM): 67.7%
- viability, T/C (second compound 0.03 µM, first compound 3.16 µM): 12.6%
- viability, T/C (second compound 0.03 µM, first compound 10 µM): 1.6%
- viability, T/C (second compound 0.0949 µM, first compound 0.0316 µM): 101%
- viability, T/C (second compound 0.0949 µM, first compound 0.1 µM): 102%
- viability, T/C (second compound 0.0949 µM, first compound 0.316 µM): 97.4%
- viability, T/C (second compound 0.0949 µM, first compound 1 µM): 57.4%
- viability, T/C (second compound 0.0949 µM, first compound 3.16 µM): 9.37%
- viability, T/C (second compound 0.0949 µM, first compound 10 µM): 1.65%
- viability, T/C (second compound 0.3 µM, first compound 0.0316 µM): 103%
- viability, T/C (second compound 0.3 µM, first compound 0.1 µM): 103%
- viability, T/C (second compound 0.3 µM, first compound 0.316 µM): 95.1%
- viability, T/C (second compound 0.3 µM, first compound 1 µM): 49.6%
- viability, T/C (second compound 0.3 µM, first compound 3.16 µM): 6.6%
- viability, T/C (second compound 0.3 µM, first compound 10 µM): 1.34%

Structure (SMILES): CC(C)NCC(C(=O)N1CCN(c2ncnc3c2C(C)CC3O)CC1)c1ccc(Cl)cc1 (stereo not drawn)
- viability, T/C (compound 0.0316 µM): 106% [middle of 4 runs]
- viability, T/C (compound 0.1 µM): 102% [middle of 4 runs]
- viability, T/C (compound 0.316 µM): 108% (2×) and 99.3% and 103%
- viability, T/C (compound 1 µM): 104% (2×) and 62.6% and 71.6%
- viability, T/C (compound 10 µM): 12.8% [middle of 4 runs]
- IC50 (curve of compound): 3.45 µM [middle of 4 runs]
